From publication PMC10874388, “Cyclic peptides discriminate BCL-2 and its clinical mutants from BCL-XL by engaging a single-residue discrepancy” (Nature Communications, 2024)
Values joined by “and” are separate entries in the source; they are usually repeats but may differ in a detail not shown here. Equal entries are not always repeated.

How the values were obtained:
Jurkat cells [1] = experiment: Apoptosis assay, Annexin V-FITC/PI staining and flow cytometry; format: cell-based
Method: Jurkat cells were seeded to 6-well plates at a density of 4 ×10^5 cells per well. Cells were incubated in the presence of DMSO, venetoclax at 2.5 μM, cp1-TAT at 30 μM, cp2-TAT at 30 μM, or cp3-TAT at 20 μM in serum-free RPMI medium for 4 h. After being incubated totally for 24 h, cells were washed once with PBS and stained with 100 μL binding buffer containing 5 μL Annexin V-FITC and 10 μL PI for 15 min, followed by addition of 400 μL binding buffer to detect cell apoptosis with FCM (BD FACSAria Fusion). Statistical analysis was performed using software FlowJo V10 and GraphPad Prism 7.0.

Jurkat cells [2] = experiment: Mitochondrial membrane potential (JC-1), flow cytometry and fluorescence microscopy; format: cell-based; conditions: Jurkat
Method: For the mitochondrial membrane potential (ΔΨm) analysis, the mitochondrial membrane potential assay kit with JC-1 dye (Beyotime, C2006) was used according to the manufacturer’s protocol. […] The value of ΔΨm was expressed as the ratio of red fluorescence intensity over green fluorescence intensity. After treated with JC-1, fluorescence intensity of Jurkat cells was tested by flow cytometry (BD FACSAria Fusion) and fluorescence microscopy (NIKON Ti-E), respectively. All experiments were performed in triplicate. Statistical analysis was performed using software GraphPad Prism 7.0.

MGC-803 cells = experiment: Cell viability assay (CellTiter-Glo), MGC-803; format: cell-based; conditions: for inhibition rate: fraction; for inhibition rate / raw viability reading: replicates
Method: (§1) The cell lines Jurkat (TIB-152), El4 (TIB-39), Daudi (ccl-213), RS4:11 (crl-1873), A549 (ccl-185), HepG2 (hb-8065) and PANC-1 (crl-1469) were purchased from ATCC (American Type Culture Collection), and MGC-803 (C6582) was purchased from Beyotime (https://www.beyotime.com/product/C6582.htm). […] Daudi and RS4:11 cells were cultured in RPMI-1640 medium (HyClone, SH30809.01) and 10% FBS (Gibco, 10099-141), whereas HepG2, MGC-803 and PANC-1 cells were cultured in MDEM (HyClone, SH30243.01). Cells were maintained at 37 °C under a humidified, 5% (v/v) CO2-containing atmosphere.
(§2) Cell viability was measured using CellTiter-Glo® 2.0 Reagent (Promega, G9242). […] After different inhibitors were added into serum-free medium and cultured for 4 h (RS4:11 for 6 h), FBS were supplemented to 10% and then incubated totally for 24 h or 48 h. Finally, the IC50 values were calculated based on measurements using a microplate reader (Thermo, Varioskan LUX). Statistical analysis was performed using software GraphPad Prism 7.0.
Supplementary Figure 10 Functional mechanism of CPs. a. IC50 values of venetoclax against A549, MGC-803 and PANC-1 cells, measured after 48 h treatment by a CellTiter-Glo assay and calculated using Prism 7.0 by a nonlinear-fit method. Data are presented as mean ± s.d.; n= 6 biological replicates. b. […]
Glo assay. Each data point represents the mean ± s.d. for 6 biological replicates.
Supplementary Figure 11 IC50 values of different inhibitors against different cell lines. a-d. Viability of A549 (a), HepG2 (b), MGC-803 (c) and PANC-1 (d) cells treated with various concentrations of ABT-199 (venetoclax), and measured after 48 h by a CellTiter-Glo assay. e, f. Viability of Jurkat cells (e) and Daudi cells (f) treated with […]
after 48 h by a CellTiter-Glo assay. Each data point represents the mean ± s.d. for 6 biological replicates.
(1 picture or pasted object on this page, not shown here)

BCL-2 G101V = tested on: BCL-2 G101V; set-up: method as in PMID 31160589; conditions: SPR assays; cited from earlier work
El4 cells = experiment: Cell viability assay (CellTiter-Glo), El4; format: cell-based; conditions: Mus musculus, 48 h treatment, NO = no inhibition detected
Method: as §1, §2

[3] = biological target: BCL-2 (chimeric human BCL-2); experiment: SPR binding assay, BCL-2; conditions: affinity fitting, mean ± SD of three independent experiments, 25 °C
From the text: (§3) The DNA fragments encoding human BCL-XL ([…], with […] removed), BCL-w (residues 6–152), MCL-1 (residues 152–308) and BFL-1 (residues 1–151) as previously reported[18] were cloned into a pET-22b vector (Invitrogen), respectively. A chimeric human BCL-2 (including residues 1–50 and 92–207) was constructed, by removing the internal long loop (residues 51–91) and replacing its residues 35–50 with residues 33–48 of BCL-XL to solubilize the protein[14], and then it was cloned into a pET28a-Sumo vector (Invitrogen). All BCL-2 mutants (G101V, F104L, Y103D, D111A) were generated by mutagenic PCR, according to the QuikChange (Stratagene) protocol.
(§4) SPR assays were performed using a Biacore T200 instrument in running buffer consisting 10 mM PBS, 50 μM EDTA and 0.05% Tween-20 at 25 °C. Biotinylated proteins were immobilized on a CAP sensor chip (Cytiva, 28920234). […] The binding affinities were quantified by the Biacore evaluation software using 1:1 binding model. The reproducibility of the assays was confirmed by performing replicate determinations.

BCL-XL = biological target: T1, BCL-XL (Homo sapiens, UniProt Q07817, DEL27-81); experiment: SPR binding assay, BCL-XL; conditions: affinity fitting, mean ± SD of three independent experiments, 25 °C
T1 construct: human BCL-XL (residues 1–210, with 27–81 and 210–233 removed); vector-borne tag of pET-22b (Ni-NTA purification implies a His tag); made in house; host or cells: E. coli BL21 (DE3)
From the text: as §3, §4

T1 sequence (Q07817 with tags, fused parts or gaps DEL27-81): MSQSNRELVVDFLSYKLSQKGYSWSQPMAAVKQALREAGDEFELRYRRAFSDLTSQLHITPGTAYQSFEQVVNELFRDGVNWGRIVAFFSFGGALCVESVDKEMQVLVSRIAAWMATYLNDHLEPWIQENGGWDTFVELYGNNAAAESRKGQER

For `CC1(C)CCC(CN2CCN(c3ccc(C(=O)NS(=O)(=O)c4ccc(NCC5CCOCC5)c([N+](=O)[O-])c4)c(Oc4cnc5[nH]ccc5c4)c3)CC2)=C(c2ccc(Cl)cc2)C1` [venetoclax], the “cell apoptosis(%)” value (Jurkat cells [1]; Figure 6b, replicate values) was 94.5% and 85.6%, the “Proportion of apoptotic cells” value (Jurkat cells [1]; Jurkat, 24 h, 2.5 μM) was 94.5% and the “ΔΨm (ratio of red over green fluorescence, Q1/Q3)” value (Jurkat cells [2]; 4 h treatment, JC-1, flow cytometry, n = 3) was 0.1. The “Relative ΔΨm by JC-1 fluorescence staining (microscopy)” value (Jurkat cells [2]; 24 h treatment (Supplementary Fig. 13)) was “red fluorescence almost disappeared”, the “average (raw viability reading)” value (MGC-803 cells; ABT199 0.3125 uM) was 557867 and the inhibition rate (MGC-803 cells; ABT199 0.3125 uM) was 0.2027 and 0.1767 and 0.1757 and 0.1522 and 0.1169 and 0.1408. The raw viability reading (MGC-803 cells; ABT199 0.3125 uM) was 548000 and 563600 and 587100 and 571200 and 530000 and 547300, the “average (raw viability reading)” value (MGC-803 cells; ABT199 0.625 uM) was 500400 and the inhibition rate (MGC-803 cells; ABT199 0.625 uM) was 0.2793 and 0.2709 and 0.2616 and 0.2533 and 0.2176 and 0.2009. The raw viability reading (MGC-803 cells; ABT199 0.625 uM) was 490900 and 496400 and 520100 and 531200 and 479100 and 484700, the “average (raw viability reading)” value (MGC-803 cells; ABT199 1.25 uM) was 506350 and the inhibition rate (MGC-803 cells; ABT199 1.25 uM) was 0.2765 and 0.2507 and 0.2473 and 0.2351 and 0.2002 and 0.2202. For the same compound, the raw viability reading (MGC-803 cells; ABT199 1.25 uM) was 500400 and 508500 and 531700 and 518400 and 481000 and 498100, the “average (raw viability reading)” value (MGC-803 cells; ABT199 2.5 uM) was 356233 and the inhibition rate (MGC-803 cells; ABT199 2.5 uM) was 0.4666 and 0.4612 and 0.464 and 0.4702 and 0.4562. The raw viability reading (MGC-803 cells; ABT199 2.5 uM) was 356300 and 352200 and 361500 and 354600 and 358200, the “average (raw viability reading)” value (MGC-803 cells; ABT199 5 uM) was 295000 and the inhibition rate (MGC-803 cells; ABT199 5 uM) was 0.6033 and 0.5602 and 0.5626 and 0.5469 and 0.5313 and 0.5332. The raw viability reading (MGC-803 cells; ABT199 5 uM) was 290800 and 301200 and 311600 and 310300 and 263700 and 292400, the “average (raw viability reading)” value (MGC-803 cells; ABT199 10 uM) was 171300 and the inhibition rate (MGC-803 cells; ABT199 10 uM) was 0.7623 and 0.7504 and 0.748 and 0.7419 and 0.7262 and 0.725. For the same compound, the raw viability reading (MGC-803 cells; ABT199 10 uM) was 167500 and 171600 and 182000 and 182800 and 158000 and 165900, the “average (raw viability reading)” value (MGC-803 cells; ABT199 20 uM) was 77771.7 and the inhibition rate (MGC-803 cells; ABT199 20 uM) was 0.8931 and 0.8865 and 0.8872 and 0.8828 and 0.8769 and 0.8715. The raw viability reading (MGC-803 cells; ABT199 20 uM) was 75000 and 77910 and 81820 and 85400 and 71050 and 75450, the “Reduction of binding affinity of BCL-2 to venetoclax by G101V” value (BCL-2 G101V) was ~ 180 fold and the IC50 (El4 cells) was 1700 ± 200 nM.

Work on `O=C(c1cc(-c2cc3c(cc2C(=O)N2Cc4ccccc4C[C@H]2CN2CCOCC2)OCO3)n2c1CCCC2)N(c1ccccc1)c1ccc(O)cc1` [S55746] yielded a Kd [3] of 6 ± 2 nM and a Kd (BCL-XL) of 175 ± 42 nM.
